From BindingDB's records for doi:10.7270/Q2MP51PC (Pcmd, 2008)

The compounds below were run against T1, Complement C1s subcomponent (Homo sapiens, UniProt P09871) (assay: concentration-response of complement C1s inhibitors – biochemical, dose response (AID 787)).
T1 sequence (P09871 whole entry): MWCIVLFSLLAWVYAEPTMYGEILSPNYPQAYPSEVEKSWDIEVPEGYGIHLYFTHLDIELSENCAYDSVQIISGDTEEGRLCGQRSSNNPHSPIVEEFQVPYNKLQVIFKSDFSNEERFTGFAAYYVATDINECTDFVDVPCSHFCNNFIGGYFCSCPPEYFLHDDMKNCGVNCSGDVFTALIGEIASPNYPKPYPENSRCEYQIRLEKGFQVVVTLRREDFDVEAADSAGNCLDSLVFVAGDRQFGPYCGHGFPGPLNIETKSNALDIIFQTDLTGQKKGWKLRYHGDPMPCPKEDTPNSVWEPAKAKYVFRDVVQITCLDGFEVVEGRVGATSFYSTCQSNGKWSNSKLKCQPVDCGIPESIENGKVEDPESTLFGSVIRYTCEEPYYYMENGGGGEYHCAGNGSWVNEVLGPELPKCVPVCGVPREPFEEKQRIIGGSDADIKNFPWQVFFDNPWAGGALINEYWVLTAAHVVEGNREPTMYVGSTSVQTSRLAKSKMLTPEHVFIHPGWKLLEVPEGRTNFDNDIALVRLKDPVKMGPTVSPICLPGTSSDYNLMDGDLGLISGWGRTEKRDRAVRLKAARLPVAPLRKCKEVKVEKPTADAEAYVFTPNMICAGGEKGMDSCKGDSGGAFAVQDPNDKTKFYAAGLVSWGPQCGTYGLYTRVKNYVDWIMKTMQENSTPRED

Row | IC50 [µM] | SMILES
1 | > 50 | CCCCN1C(=O)/C(=C2\SC(N3CCCCC3)=NC2=O)c2ccccc21 [MLS000111979]
2 | > 50 | COc1ccc2c(c1)CCc1c(C(=O)NCc3ccc(F)cc3)noc1-2 [MLS000116425]
3 | > 50 | Cc1nc(C)c(C(=O)Nc2cccc(C)c2C)o1 [MLS000118537]
4 | > 50 | Cn1c(Cn2c(=O)sc3ccccc32)nnc1SCC(=O)NCc1ccccc1Cl [MLS000118585]
5 | > 50 | COc1ccccc1S(=O)(=O)Cc1ccc(C(=O)NCCN(C)C)o1 [MLS000120198]
6 | > 50 | COc1ccc2cc(CCNC(=O)C(C)C)c(=O)[nH]c2c1 [N-[2-(7-methoxy-2-oxo-1H-quinolin-3-yl)ethyl]-2-methylpropanamide]
7 | > 50 | CCc1nn(C(C)C(=O)NCCN2CCN(c3cccc(C)c3C)CC2)c(=O)c2cc3occc3n12 (configuration not stated) [SMR000029605]
8 | > 50 | COc1ccc(NC(=O)CSC2=NC3=C(C(=O)CCC3)C(c3ccco3)C2C#N)c(OC)c1 (configuration not stated) [SMR000042323]
9 | > 50 | CCOc1ccc2[nH]c3c(N4CCN(c5ccccn5)CC4)ncnc3c2c1 [SMR000044529]
10 | 0.9 | CSc1nc(-c2ccco2)nn1C(=O)c1ccc(C)cc1 [[3-(furan-2-yl)-5-methylsulfanyl-1,2,4-triazol-1-yl]-(4-methylphenyl)methanone]

The remaining lines, values behind:

Row | SMILES | IC50 [µM]
11 | CC1CCCN(C(C(=O)Nc2ccc3c(c2)OCO3)c2ccccc2)C1 (configuration not stated) [MLS000116117] | > 50
12 | CN(CCNC(=O)Cn1c(=O)sc2ccccc21)Cc1ccccc1 [MLS000116175] | > 50
13 | Cc1ccc(CCN2C(=O)CCC2(C)C(=O)NC2CCCC2)cc1 (configuration not stated) [MLS000120119] | > 50
14 | CCCC(=O)Nc1ccc(C(=O)n2nnc3ccccc32)cc1 [N-[4-(1H-1,2,3-benzotriazol-1-ylcarbonyl)phenyl]butanamide] | 0.38
15 | Cc1ccc(-c2noc(CN(C(=O)C34CC5CC(CC(C5)C3)C4)C(C)C)n2)cc1 [N-[[3-(4-methylphenyl)-1,2,4-oxadiazol-5-yl]methyl]-N-propan-2-yl-1-adamantanecarboxamide] | > 50
16 | CCCCn1c(=O)cc(N2CCOCC2)[nH]c1=O [SMR000018178] | > 50
17 | COc1ccc(NC(=O)c2[nH]cnc2C(=O)Nc2ccccc2C)cc1 [SMR000020470] | > 50
18 | COc1ccccc1/N=C/c1nc(-c2ccccc2)oc1OC(C)=O [SMR000039734] | > 50
19 | Cc1nn(C(=O)c2ccccc2)c2c1C(=O)CC(C)(C)C2 [SMR000069174] | 5.35
20 | CC(=O)c1c(OC(=O)c2ccco2)c2ccccc2n1C [SMR000109417] | 25.9
21 | Cc1cc(OC(=O)c2ccccc2)n(CCC#N)n1 [[2-(2-cyanoethyl)-5-methyl-pyrazol-3-yl] benzoate] | 2.14
22 | CSc1nc(-c2ccco2)nn1C(=O)c1cccs1 [[3-(furan-2-yl)-5-methylsulfanyl-1,2,4-triazol-1-yl]-thiophen-2-ylmethanone] | 0.88
